From patent US20250382287A1, “PHARMACEUTICALLY ACCEPTABLE SALT AND CRYSTAL FORM OF NITROGEN-CONTAINING BRIDGE HETEROCYCLIC DERIVATIVE, AND METHOD FOR PREPARING SAME” (JIANGSU HENGRUI PHARMACEUTICALS CO., LTD., priority 2022, published 2025)

Columns and labels:
[1] = DVS (dynamic vapor sorption) hygroscopicity testing; assay type: physicochemical; conditions: for hygroscopic weight gain under normal storage conditions / hygroscopic weight gain under accelerated experimental conditions / hygroscopic weight gain under extreme conditions: DVS; for hygroscopic weight gain under normal storage conditions: 25° C. and 60% RH; for hygroscopic weight gain under accelerated experimental conditions: 70% RH; for hygroscopic weight gain under extreme conditions: 90% RH; for crystal form re-identification after DVS testing: XRPD after DVS
Description: DVS refers to dynamic vapor sorption: Surface Measurement Systems instrinsic was adopted; the humidity started at 50%, the humidity range investigated was 0%-95%, and the humidity was increased in increments of 10%; the criterion was that each gradient mass change dM/dT is less than 0.002%, TMAX 360 min, two cycles.

[2] = Long-term/accelerated stability (sealed, 25° C./60% RH and 40° C./75% RH)
[3] = Influencing factor stability (open flasks, light, high temperature, high humidity, 30 days)
[4] = 25° C., 60% RH, sealed, 1 month
[5] = 25° C., 60% RH, sealed, 2 months
[6] = 25° C., 60% RH, sealed, 3 months
[7] = 25° C., 60% RH, sealed, 6 months
[8] = 25° C./60% RH and 40° C./75% RH, 6 months
[9] = 40° C., 75% RH, sealed, 1 month
[10] = 40° C., 75% RH, sealed, 2 months
[11] = 40° C., 75% RH, sealed, 3 months
[12] = 40° C., 75% RH, sealed, 6 months
[13] = Light exposure (4500 Lux), 5 days, open flask
[14] = Light exposure (4500 Lux), 10 days, open flask
[15] = Light exposure (4500 Lux), 30 days, open flask
[16] = light exposure (4500 Lux), 40° C. and 60° C., high humidity RH 75% and 92.5%, 30 days
[17] = Light exposure (4500 Lux), 12 days, open flask

**Q.** Which results are given for `CCO[C@H]1C[C@H]2CC[C@@](c3ccc(C(=O)O)cc3)(C1)N2Cc1c(OC)cc(C)c2[nH]ccc12.O=C(O)/C=C/C(=O)O` [crystal form I of the fumarate, 4-((1S,3S,5R)-3-ethoxy-8-((5-methoxy-7-methyl-1H-indol-4-yl)methyl)-8-azabicyclo[3.2.1]octan-1-yl)benzoic acid-fumarate]?
**A.** hygroscopic weight gain under normal storage conditions [1]: about 0.51%; hygroscopic weight gain under accelerated experimental conditions [1]: about 0.60%; hygroscopic weight gain under extreme conditions [1]: about 0.82%; crystal form re-identification after DVS testing [1]: did not change; Purity % [2, 4]: 99.9%; Salt form [2, 4]: No change; Purity % [2, 5]: 100.0%; Salt form [2, 5]: No change; Purity % [2, 6]: 100.0%; Salt form [2, 6]: No change; Purity % [2, 7]: 99.9%; Salt form [2, 7]: No change; chemical stability [2, 8]: good; physical stability [2, 8]: good; Purity % [2, 9]: 99.9%; Salt form [2, 9]: No change; Purity % [2, 10]: 99.9%; Salt form [2, 10]: No change; Purity % [2, 11]: 99.9%; Salt form [2, 11]: No change; Purity % [2, 12]: 99.8%; Salt form [2, 12]: No change; Purity % ([2]; Initial): 100.0%; Salt form ([2]; Initial): Crystal form I; Color and state ([3]; 40° C., 5 days, open flask): White solid; Purity % ([3]; 40° C., 5 days, open flask): 99.7%; Salt form ([3]; 40° C., 5 days, open flask): No change; Color and state ([3]; 40° C., 10 days, open flask): White solid; Purity % ([3]; 40° C., 10 days, open flask): 99.6%; Salt form ([3]; 40° C., 10 days, open flask): No change; Color and state ([3]; 40° C., 30 days, open flask): White solid; Purity % ([3]; 40° C., 30 days, open flask): 99.3%; Salt form ([3]; 40° C., 30 days, open flask): No change; Color and state ([3]; 60° C., 5 days, open flask): White solid; Purity % ([3]; 60° C., 5 days, open flask): 99.8%; Salt form ([3]; 60° C., 5 days, open flask): No change; Color and state ([3]; 60° C., 10 days, open flask): White solid; Purity % ([3]; 60° C., 10 days, open flask): 99.7%; Salt form ([3]; 60° C., 10 days, open flask): No change; Color and state ([3]; 60° C., 30 days, open flask): White solid; Purity % ([3]; 60° C., 30 days, open flask): 99.5%; Salt form ([3]; 60° C., 30 days, open flask): No change; Color and state ([3]; 75% RH, 5 days, open flask): White solid; Purity % ([3]; 75% RH, 5 days, open flask): 100.0%; Salt form ([3]; 75% RH, 5 days, open flask): No change; Color and state ([3]; 75% RH, 10 days, open flask): White solid; Purity % ([3]; 75% RH, 10 days, open flask): 99.9%; Salt form ([3]; 75% RH, 10 days, open flask): No change; Color and state ([3]; 75% RH, 30 days, open flask): White solid; Purity % ([3]; 75% RH, 30 days, open flask): 100.0%; Salt form ([3]; 75% RH, 30 days, open flask): No change; Color and state ([3]; 92.5% RH, 5 days, open flask): White solid; Purity % ([3]; 92.5% RH, 5 days, open flask): 99.9%; Salt form ([3]; 92.5% RH, 5 days, open flask): No change; Color and state ([3]; 92.5% RH, 10 days, open flask): White solid; Purity % ([3]; 92.5% RH, 10 days, open flask): 99.9%; Salt form ([3]; 92.5% RH, 10 days, open flask): No change; Color and state ([3]; 92.5% RH, 30 days, open flask): White solid; Purity % ([3]; 92.5% RH, 30 days, open flask): 99.9%; Salt form ([3]; 92.5% RH, 30 days, open flask): No change; Color and state ([3]; Initial, 0 days): White solid; Purity % ([3]; Initial, 0 days): 100.0%; Salt form ([3]; Initial, 0 days): Crystal form I; Color and state [3, 13]: White solid; Purity % [3, 13]: 100.0%; Salt form [3, 13]: No change; Color and state [3, 14]: White solid; Purity % [3, 14]: 99.9%; Salt form [3, 14]: No change; Color and state [3, 15]: White solid; Purity % [3, 15]: 99.5%; Salt form [3, 15]: No change; chemical stability [3, 16]: good; physical stability [3, 16]: good

**Q.** With `CCO[C@H]1C[C@H]2CC[C@@](c3ccc(C(=O)O)cc3)(C1)N2Cc1c(OC)cc(C)c2[nH]ccc12.O=P(O)(O)O` [crystal form II of the phosphate, 4-((1S,3S,5R)-3-ethoxy-8-((5-methoxy-7-methyl-1H-indol-4-yl)methyl)-8-azabicyclo[3.2.1]octan-1-yl)benzoic acid-phosphate] as the compound, how does the “Purity %” value [2, 4] read?
**A.** 99.6%

**Q.** And the “Purity %” value [2, 5]?
**A.** 99.4%

**Q.** What about the physical stability ([2]; 25° C./60% RH and 40° C./75% RH, 2 months) of the same compound?
**A.** relatively good

**Q.** And the “Purity %” value [2, 9]?
**A.** 98.7%

**Q.** And the “Purity %” value [2, 10]?
**A.** 97.7%

**Q.** And the “Purity %” value ([2]; Initial)?
**A.** 99.9%

**Q.** And the long-term chemical stability ([2]; long-term condition, 2 months)?
**A.** good

**Q.** What about the Color and state ([3]; 40° C., 5 days, open flask) of the same compound?
**A.** White solid

**Q.** What about the Salt form ([3]; 40° C., 5 days, open flask) of the same compound?
**A.** No change

**Q.** And the Color and state ([3]; 40° C., 12 days, open flask)?
**A.** White solid

**Q.** And the Salt form ([3]; 40° C., 12 days, open flask)?
**A.** No change

**Q.** What about the Color and state ([3]; 40° C., 30 days, open flask) of the same compound?
**A.** White solid

**Q.** What about the Salt form ([3]; 40° C., 30 days, open flask) of the same compound?
**A.** No change

**Q.** And the Color and state ([3]; 60° C., 5 days, open flask)?
**A.** White solid

**Q.** And the Salt form ([3]; 60° C., 5 days, open flask)?
**A.** No change

**Q.** And the Color and state ([3]; 60° C., 12 days, open flask)?
**A.** White solid

**Q.** And the Salt form ([3]; 60° C., 12 days, open flask)?
**A.** No change

**Q.** And the Color and state ([3]; 60° C., 30 days, open flask)?
**A.** White solid

**Q.** And the Salt form ([3]; 60° C., 30 days, open flask)?
**A.** No change

**Q.** What about the Color and state ([3]; 75% RH, 5 days, open flask) of the same compound?
**A.** White solid

**Q.** What about the Salt form ([3]; 75% RH, 5 days, open flask) of the same compound?
**A.** No change

**Q.** What about the Color and state ([3]; 75% RH, 12 days, open flask) of the same compound?
**A.** White solid

**Q.** What about the Salt form ([3]; 75% RH, 12 days, open flask) of the same compound?
**A.** No change

**Q.** And the Color and state ([3]; 75% RH, 30 days, open flask)?
**A.** White solid

**Q.** What about the Salt form ([3]; 75% RH, 30 days, open flask) of the same compound?
**A.** No change

**Q.** What about the Color and state ([3]; 92.5% RH, 5 days, open flask) of the same compound?
**A.** White solid

**Q.** What about the Salt form ([3]; 92.5% RH, 5 days, open flask) of the same compound?
**A.** No change

**Q.** What about the Color and state ([3]; 92.5% RH, 12 days, open flask) of the same compound?
**A.** White solid

**Q.** What about the Salt form ([3]; 92.5% RH, 12 days, open flask) of the same compound?
**A.** Changed

**Q.** What about the Color and state ([3]; 92.5% RH, 30 days, open flask) of the same compound?
**A.** White solid

**Q.** And the Salt form ([3]; 92.5% RH, 30 days, open flask)?
**A.** Changed

**Q.** What about the Color and state ([3]; Initial, 0 days) of the same compound?
**A.** White solid

**Q.** What about the Salt form ([3]; Initial, 0 days) of the same compound?
**A.** Crystal form II

**Q.** And the Color and state [3, 13]?
**A.** White solid

**Q.** What about the Salt form [3, 13] of the same compound?
**A.** No change

**Q.** And the Color and state [3, 17]?
**A.** White solid

**Q.** And the Salt form [3, 17]?
**A.** No change

**Q.** What about the Color and state [3, 15] of the same compound?
**A.** White solid

**Q.** What about the Salt form [3, 15] of the same compound?
**A.** No change

**Q.** What about the “chemical stability under high humidity conditions” value ([3]; high humidity conditions only, 30 days) of the same compound?
**A.** good

**Q.** And the “physical stability under high temperature, light exposure, and high humidity (75% RH) conditions” value ([3]; high temperature, light exposure, high humidity 75% RH only)?
**A.** good

**Q.** For `CCO[C@H]1C[C@H]2CC[C@@](c3ccc(C(=O)O)cc3)(C1)N2Cc1c(OC)cc(C)c2[nH]ccc12.O=P(O)(O)O` [crystal form III of the phosphate, 4-((1S,3S,5R)-3-ethoxy-8-((5-methoxy-7-methyl-1H-indol-4-yl)methyl)-8-azabicyclo[3.2.1]octan-1-yl)benzoic acid-phosphate], which “hygroscopic weight gain under normal storage conditions” value [1] is on record?
**A.** about 4.7700%

**Q.** And the “hygroscopic weight gain under accelerated experimental conditions” value [1]?
**A.** about 5.440%

**Q.** What about the “hygroscopic weight gain under extreme conditions” value [1] of the same compound?
**A.** about 7.20%

**Q.** And the “crystal form re-identification after DVS testing” value [1]?
**A.** did not change

**Q.** Which results are given for `CCO[C@H]1C[C@H]2CC[C@@](c3ccc(C(=O)O)cc3)(C1)N2Cc1c(OC)cc(C)c2[nH]ccc12.Cl` [crystal form V of the hydrochloride, 4-((1S,3S,5R)-3-ethoxy-8-((5-methoxy-7-methyl-1H-indol-4-yl)methyl)-8-azabicyclo[3.2.1]octan-1-yl)benzoic acid-hydrochloride]?
**A.** hygroscopic weight gain under normal storage conditions [1]: about 6.36%; hygroscopic weight gain under accelerated experimental conditions [1]: about 7.28%; hygroscopic weight gain under extreme conditions [1]: about 8.32%; crystal form re-identification after DVS testing [1]: did not change

**Q.** Which “hygroscopic weight gain under normal storage conditions” value [1] does the source give for `CCO[C@H]1C[C@H]2CC[C@@](c3ccc(C(=O)O)cc3)(C1)N2Cc1c(OC)cc(C)c2[nH]ccc12.Cl` [crystal form VI of the hydrochloride, 4-((1S,3S,5R)-3-ethoxy-8-((5-methoxy-7-methyl-1H-indol-4-yl)methyl)-8-azabicyclo[3.2.1]octan-1-yl)benzoic acid-hydrochloride] here?
**A.** about 3.69%

**Q.** What about the “hygroscopic weight gain under accelerated experimental conditions” value [1] of the same compound?
**A.** about 4.12%

**Q.** What about the “hygroscopic weight gain under extreme conditions” value [1] of the same compound?
**A.** about 5.73%

**Q.** What about the “crystal form re-identification after DVS testing” value [1] of the same compound?
**A.** did not change
